Measurements from US20240368153A1, “Aminopyridine-based MTA-Cooperative PRMT5 Inhibitors” (Mirati Therapeutics, Inc., priority 2021, published 2024).
Like-named read-outs stand apart in the source and are kept apart here.

Key:
[1] = target: recombinant human dual expressed Avi PRMT5/His-MEP50 protein (Homo sapiens (Human), UniProt O14744); assay: HTRF binding assay in presence of MTA; conditions: 30 μM MTA
Protocol: The PRMT5 binding activity of compounds of the present invention was determined using an HTRF binding assay or SPR assay.
A recombinant human dual expressed Avi PRMT5/His-MEP50) protein (corresponding to amino acids for PRMT5 2-637, and 2-342 for MEP50 expressed in baculovirus) was incubated with target fragments in final buffer (25 mM ADA pH 7.2, 30 μM MTA, 1 mM TCEP, 50 mM NaCl, 0.002% Tween, 5 nM proprietary Tracer binding compound prepared in-house), overnight at 2-8° C. After overnight incubation the binding is monitored after the addition of 0.5 nM Anti-His-Tb (Cisbio) after 1 hr incubation at RT (˜20-24 hrs total binding time). The HTRF signal was measured using a Clariostar reader (BMG) excitation filter (Ex Tr), dichroic filter (LP TP) and emission filters (F 665-10 and F 620-10) manufacturer's instructions. The HTRF ratio was calculated using the formula: [emission 665/emission 620]*10000.

PRMT5/MEP50 complex = PRMT5/MEP50 complex (Homo sapiens (Human), UniProt O14744); assay: PRMT5:MEP50 FlashPlate Assay; assay type: biochemical
Protocol: The PRMT5 inhibitory activity of compounds of the present invention was determined using a PRMT5:MEP50 FlashPlate Assay (Reaction Biology Corporation).
The assay uses purified human, PRMT5 enzyme to convert S-adenosyl-L-[methyl-^3H]methionine plus histone H4 L-arginine to S-adenosyl-L-homocysteine plus histone H4 [methyl-^3H]-L-arginine. The assay was carried out using Streptavidin-coated FlashPlates (Perkin Elmer), which contained a scintillant embedded in the plastic of the plate. The histone H4 peptide substrate was conjugated with biotin, which binds to the streptavidin-coated well of the plate, placing the H4 peptide in close proximity to the side well and the scintillant. The transfer of the tritiated methyl group from S-adenosyl-L-[methyl-^3H]methionine to the bound histone H4 peptide generated a radiolabeled histone H4, which was quantitated by measuring in a scintillation counter to determine the activity of PRMT5 enzyme in the presence and absence of compound. […] Briefly, compounds of the present invention were solubilized in 100% DMSO at a highest concentration of 10 mM. For IC, determinations, the initial starting concentration for the serial dilutions of each compound was 50 μM. Control samples lacking compound, PRMT5/MEP50 complex or various reaction components also were prepared and processed in parallel with compound test samples. SAH was used as a positive control for assay validation. To measure PRMT5 inhibitory activity, 3 nM PRMT5/MEP50 complex (Reaction Biology Corporation) was preincubated with test compound in assay buffer containing 40 nM histone H4 peptide (amino acids 1-15)-Biotin conjugate for 20 min at room temperature. The enzymatic reaction was initiated by adding 1 μM tritiated S-adenosyl methionine (final concentration) and the reaction is allowed to proceed for 20 min. The reaction was stopped and the amount of bound, tritiated H4 peptide in each sample was determined using a scintillation counter. The IC50 value for each compound was calculated from each 10-point dose-response curve for samples plus and minus MTA using GraphPad Prism software and the results for exemplary compounds of Formula (I) is shown in Table 9a.

[2] = histone H4 peptide, absence of MTA, read-out: IC50
[3] = read-out: IC50 + 2 μM MTA, histone H4 peptide, presence of 2 μM MTA
[4] = IC50 + 2 μM MTA, histone H4 peptide, presence of 2 μM MTA

Sequence of PRMT5/MEP50 complex (O14744 whole entry): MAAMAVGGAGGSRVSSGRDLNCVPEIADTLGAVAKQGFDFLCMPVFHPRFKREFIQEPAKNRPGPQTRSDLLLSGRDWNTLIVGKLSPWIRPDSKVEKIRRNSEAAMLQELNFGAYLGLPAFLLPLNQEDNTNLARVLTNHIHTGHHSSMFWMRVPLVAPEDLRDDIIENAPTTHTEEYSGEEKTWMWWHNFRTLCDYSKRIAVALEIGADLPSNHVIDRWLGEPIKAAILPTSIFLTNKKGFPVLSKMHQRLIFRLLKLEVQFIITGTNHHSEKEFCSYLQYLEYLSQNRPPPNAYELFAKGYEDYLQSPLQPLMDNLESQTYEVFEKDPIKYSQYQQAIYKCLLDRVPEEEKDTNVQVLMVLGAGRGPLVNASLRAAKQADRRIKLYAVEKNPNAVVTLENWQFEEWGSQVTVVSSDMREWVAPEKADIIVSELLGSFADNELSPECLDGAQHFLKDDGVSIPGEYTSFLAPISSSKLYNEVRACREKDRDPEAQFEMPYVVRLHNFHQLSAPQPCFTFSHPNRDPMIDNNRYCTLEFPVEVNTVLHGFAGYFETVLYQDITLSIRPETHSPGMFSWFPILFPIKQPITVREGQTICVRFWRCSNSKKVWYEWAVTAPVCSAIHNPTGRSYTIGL
Sequence of PRMT5/MEP50 complex (Q9BQA1 whole entry partner): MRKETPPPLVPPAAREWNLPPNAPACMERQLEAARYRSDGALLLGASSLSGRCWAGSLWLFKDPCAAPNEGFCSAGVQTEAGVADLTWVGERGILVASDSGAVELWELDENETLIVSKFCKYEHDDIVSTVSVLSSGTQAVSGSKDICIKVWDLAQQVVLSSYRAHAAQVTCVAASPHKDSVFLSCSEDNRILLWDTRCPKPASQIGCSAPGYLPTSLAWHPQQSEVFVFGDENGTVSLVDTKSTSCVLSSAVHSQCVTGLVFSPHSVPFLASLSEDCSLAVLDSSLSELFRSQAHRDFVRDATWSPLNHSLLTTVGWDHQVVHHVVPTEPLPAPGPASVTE
Sequence of recombinant human dual expressed Avi PRMT5/His-MEP50 protein (O14744 2-637): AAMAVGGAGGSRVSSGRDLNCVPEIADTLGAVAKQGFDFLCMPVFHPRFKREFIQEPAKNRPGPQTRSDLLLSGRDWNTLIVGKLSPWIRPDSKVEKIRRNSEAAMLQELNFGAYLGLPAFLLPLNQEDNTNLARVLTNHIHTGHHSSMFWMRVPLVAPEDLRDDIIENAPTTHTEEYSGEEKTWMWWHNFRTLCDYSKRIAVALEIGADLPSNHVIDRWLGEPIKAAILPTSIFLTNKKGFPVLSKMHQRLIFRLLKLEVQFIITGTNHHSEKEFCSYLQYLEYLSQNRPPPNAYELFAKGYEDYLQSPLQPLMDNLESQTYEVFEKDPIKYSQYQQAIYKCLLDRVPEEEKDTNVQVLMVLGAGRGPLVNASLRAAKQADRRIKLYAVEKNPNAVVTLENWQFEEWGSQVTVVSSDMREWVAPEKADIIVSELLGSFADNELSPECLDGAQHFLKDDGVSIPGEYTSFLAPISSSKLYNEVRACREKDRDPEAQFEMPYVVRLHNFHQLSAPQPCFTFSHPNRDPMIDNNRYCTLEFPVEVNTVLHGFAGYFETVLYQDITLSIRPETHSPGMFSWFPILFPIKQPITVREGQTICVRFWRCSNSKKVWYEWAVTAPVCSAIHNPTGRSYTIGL
Sequence of recombinant human dual expressed Avi PRMT5/His-MEP50 protein (Q9BQA1 2-342 partner): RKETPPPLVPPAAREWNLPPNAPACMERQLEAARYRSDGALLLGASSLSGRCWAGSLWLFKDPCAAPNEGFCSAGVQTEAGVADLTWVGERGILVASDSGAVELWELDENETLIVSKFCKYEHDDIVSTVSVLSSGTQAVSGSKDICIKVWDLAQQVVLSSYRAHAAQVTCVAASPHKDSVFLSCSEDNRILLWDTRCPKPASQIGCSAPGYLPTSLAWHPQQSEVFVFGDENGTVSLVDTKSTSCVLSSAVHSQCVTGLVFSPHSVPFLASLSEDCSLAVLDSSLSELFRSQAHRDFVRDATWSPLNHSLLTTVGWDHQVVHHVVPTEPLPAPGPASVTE

Row | Compound | IC50 [1] [µM] | further results
1 | CC(=O)N1CCC(=O)n2c(cc3nc(N)c(C)cc32)C1 [Example 15-2, 11-acetyl-5-amino-4-methyl-1,6,11-triazatricyclo[7.5.0.0^2,7]tetradeca-2,4,6,8-tetraen-14-one] | 2.47 | IC50 (PRMT5/MEP50 complex; [2]): > 300 µM; IC50 (PRMT5/MEP50 complex; [3]): 57.9 µM
2 | Cc1cc(N)nc2cc(Cc3cscn3)cnc12 [Example 2-10, 4-methyl-7-(thiazol-4-ylmethyl)-1,5-naphthyridin-2-amine] | 2.14 | 
3 | CNc1ccc2nc(N)cc(C)c2n1 [Example 5-1, N^2,8-dimethyl-1,5-naphthyridine-2,6-diamine] | ≥ 100 | 
4 | Cc1cc(N)nc2ccc(-c3cnn(C)c3)nc12 [Example 4-5, 4-methyl-6-(1-methylpyrazol-4-yl)-1,5-naphthyridin-2-amine] | 64.1 | 
5 | Cn1ncc(N2CCc3cc(F)c(N)nc3C2)c1-c1ccccc1C#N [Example 11-4, 2-(4-(2-amino-3-fluoro-5,6-dihydro-1,7-naphthyridin-7(8H)-yl)-1-methyl-1H-pyrazol-5-yl)benzonitrile] | 1.43 | IC50 (PRMT5/MEP50 complex; [2]): > 300 µM; IC50 (PRMT5/MEP50 complex; [3]): 79.8 µM
6 | Cc1cc(N)nc2cc(Oc3ccccc3Cl)cnc12 [Example 3-3, 7-(2-chlorophenoxy)-4-methyl-1,5-naphthyridin-2-amine] | 4.8 | 
7 | Cc1cc(N)nc2cc(Oc3ccccc3C#N)cnc12 [Example 3-4, 2-((6-amino-8-methyl-1,5-naphthyridin-3-yl)oxy)benzonitrile] | 33.9 | 
8 | C#Cc1c(CNC(=O)c2ccccc2)[nH]c2cc(C)c(N)nc12 [Example 15-4, N-((5-amino-3-ethynyl-6-methyl-1H-pyrrolo[3,2-b]pyridin-2-yl)methyl)benzamide] | 17 | 
9 | Cc1cc(N)nc2cc(C(C#N)N3C(=O)c4ccccc4C3=O)cnc12 (stereo not shown) [Example 7-7, 2-(6-amino-8-methyl-1,5-naphthyridin-3-yl)-2-(1,3-dioxoisoindolin-2-yl)acetonitrile] | 0.024 | IC50 (PRMT5/MEP50 complex; [2]): > 300 µM; IC50 (PRMT5/MEP50 complex; [3]): 2.39 µM
10 | Cc1cc(N)nc2cc(-c3ccccc3)cnc12 [Example 1-1, 4-methyl-7-phenyl-1,5-naphthyridin-2-amine] | 17.2 | 
11 | Cc1cc2[nH]c(-n3cnc(Br)n3)cc2nc1N [Example 13-2, 2-(3-bromo-1,2,4-triazol-1-yl)-6-methyl-1H-pyrrolo[3,2-b]pyridin-5-amine] | 4.27 | IC50 (PRMT5/MEP50 complex; [4]): 72.8 µM; IC50 (PRMT5/MEP50 complex; [2]): 83.8 µM
12 | Cc1cc(N)nc2cc(Oc3ccccn3)cnc12 [Example 3-6, 4-methyl-7-(pyridin-2-yloxy)-1,5-naphthyridin-2-amine] | 40.6 | 
13 | Cc1cc2[nH]c(N3CCN(C)C3=O)cc2nc1N [Example 13-5, 1-(5-amino-6-methyl-1H-pyrrolo[3,2-b]pyridin-2-yl)-3-methyl-imidazolidin-2-one] | 31.8 | IC50 (PRMT5/MEP50 complex; [4]): 70 µM; IC50 (PRMT5/MEP50 complex; [2]): > 300 µM
14 | Cc1cc(N)nc2cc(Cc3ccccn3)cnc12 [Example 2-6, 4-methyl-7-(2-pyridylmethyl)-1,5-naphthyridin-2-amine] | 2.85 | 
15 | Cc1ccccc1Cc1cnc2c(C)cc(N)nc2c1 [Example 2-5, 4-methyl-7-(2-methylbenzyl)-1,5-naphtbyridin-2-amine] | 8.83 | 
16 | Cc1cc(N)nc2cc(-c3ccsn3)cnc12 [Example 1-5, 7-(isothiazol-3-yl)-4-methyl-1,5-naphtbyridin-2-amine] | 55.5 | 
17 | Cc1cc(N)nc2ccc(-c3ccsn3)nc12 [Example 4-10, 6-isothiazol-3-yl-4-methyl-1,5-naphthyridin-2-amine] | 13.5 | 
18 | Cc1cc(N)nc2cc(Oc3ccccc3F)cnc12 [Example 3-2, 7-(2-fluorophenoxy)-4-methyl-1,5-naphthyridin-2-amine] | 5.11 | 
19 | Cc1cc(N)nc2cc(-c3cccnc3)cnc12 [Example 1-3, 4-methyl-7-(pyridin-3-yl)-1,5-paphthyridin-2-amine] | 2.08 | 
20 | Cc1cc(N)nc2cc(-c3cncs3)cnc12 [Example 1-6, 4-methyl-7-(thiazol-5-yl)-1,5-naphthyridin-2-amine] | 51 | 
21 | Nc1ccc2[nH]c(NC(=O)c3ccccc3)cc2n1 [Example 12-3, N-(5-amino-1H-pyrrolo[3,2-b]pyridin-2-yl)benzamide] | 18.3 | IC50 (PRMT5/MEP50 complex; [2]): 95.9 µM; IC50 (PRMT5/MEP50 complex; [3]): 97.7 µM

Row | Compound | IC50 [1] [µM] | further results
22 | Cc1cc(N)nc2ccc(-c3cnsc3)nc12 [Example 4-6, 6-isothiazol-4-yl-4-methyl-1,5-naphthyridin-2-amine] | 21.8 | 
23 | Cc1cc(N)nc2ccc(-c3cncs3)nc12 [Example 4-4, 4-methyl-6-thiazol-5-yl-1,5-naphthyridin-2-amine] | 29.6 | 
24 | Cc1cc(N)nc2cc(-c3cnn(C)c3)cnc12 [Example 1-7, 4-methyl-7-(1-methyl-1H-pyrazol-4-yl)-1,5-naphthyridin-2-amine] | 7.92 | 
25 | Cc1cc(N)nc2ccc(-c3ccccn3)nc12 [Example 4-2, 4-methyl-6-(2-pyridyl)-1,5-naphthyridin-2-amine] | 13.9 | 
26 | CC(=O)NCc1cc2nc(N)c(C)cc2n1C(C)=O [Example 15-7, N-((1-acetyl-5-amino-6-methyl-1H-pyrrolo[3,2-b]pyridin-2-yl)methyl)acetamide] | 0.581 | 
27 | Cc1cc(N)nc2ccc(NC3CCC3)nc12 [Example 5-3, N^6-cyclobutyl-4-methyl-1,5-naphthyridine-2,6-diamine] | 87.9 | 
28 | Nc1ccc2cc(Cl)ncc2n1 [Example 6-1, 6-chloro-1,7-naphthyridin-2-amine] | ≥ 100 | 
29 | Nc1ccc2c(n1)CN(c1cccnc1)CC2 [Example 11-1, 7-(3-pyridyl)-6,8-dihydro-5H-1,7-naphthyridin-2-amine] | 3.68 | 
30 | Cc1cc2[nH]c(N3CC(=O)NC3=O)cc2nc1N [Example 13-7, 1-(5-amino-6-methyl-1H-pyrrolo[3,2-b]pyridin-2-yl)imidazolidine-2,4-dione] | 2.29 | IC50 (PRMT5/MEP50 complex; [4]): > 300 µM; IC50 (PRMT5/MEP50 complex; [2]): > 300 µM
31 | Cc1cc(N)nc2cc(Oc3ccccc3)cnc12 [Example 3-1, 4-methyl-7-phenoxy-1,5-naphthyridin-2-amine] | 8.99 | 
32 | Cc1cc(N)nc2cc(-c3cccnn3)cnc12 [Example 1-4, 4-methyl-7-(pyridazin-3-yl)-1,5-naphthyridin-2-amine] | 7.46 | 
33 | Cc1cc(N)nc2ccc(-c3cccnc3)nc12 [Example 4-3, 4-methyl-6-(3-pyridyl)-1,5-naphthyridin-2-amine] | 23.9 | 
34 | Cc1cc2c(cc(CNC(=O)c3ccccc3)n2C)nc1N [Example 15-3, N-[(5-amino-1,6-dimethyl-pyrrolo[3,2-b]pyridin-2-yl)methyl]benzamide] | 0.138 | 
35 | Cc1cc(N)nc2cc(Oc3ccncc3)cnc12 [Example 3-8, 4-methyl-7-(pyridin-4-yloxy)-1,5-naphtbyridin-2-amine] | 84 | 
36 | Cc1cc(N)nc2cc(-c3ccccn3)cnc12 [Example 1-2, 4-methyl-7-(pyridin-2-yl)-1,5-naphthyridin-2-amine] | 82 | 
37 | Cc1cc(N)nc2ccc(-c3ccc(F)cc3)nc12 [Example 4-9, 6-(4-fluorophenyl)-4-methyl-1,5-naphthyridin-2-amine] | 14 | 
38 | Cc1cc(N)nc2cc(Cc3ccncc3)cnc12 [Example 2-8, 4-methyl-7-(4-pyridylmethyl)-1,5-naphthyridin-2-amine] | 35.5 | 
39 | Cc1cc(N)nc2cc(Cc3ccccc3)cnc12 [Example 2-1, 7-benzyl-4-methyl-1,5-naphthyridin-2-amine] | 6.64 | 
40 | Cc1ccccc1Oc1cnc2c(C)cc(N)nc2c1 [Example 3-5, 4-methyl-7-(2-methylphenoxy)-1,5-naphtbyridin-2-amine] | 39.6 | 
41 | Cn1cc(N2CCc3cc(F)c(N)nc3C2)cn1 [Example 11-3, 3-fluoro-7-(1-methyl-1H-pyrazol-4-yl)-5,6,7,8-tetrahydro-1,7-naphthyridin-2-amine] | ≥ 100 | 
